Drawing on ChEMBL document CHEMBL1212897 (J Med Chem, 2010), this text covers IC50 for 30 compounds.

In the experiment the target is T1, Mineralocorticoid receptor (Homo sapiens, UniProt P08235).
T1 sequence (P08235 whole entry): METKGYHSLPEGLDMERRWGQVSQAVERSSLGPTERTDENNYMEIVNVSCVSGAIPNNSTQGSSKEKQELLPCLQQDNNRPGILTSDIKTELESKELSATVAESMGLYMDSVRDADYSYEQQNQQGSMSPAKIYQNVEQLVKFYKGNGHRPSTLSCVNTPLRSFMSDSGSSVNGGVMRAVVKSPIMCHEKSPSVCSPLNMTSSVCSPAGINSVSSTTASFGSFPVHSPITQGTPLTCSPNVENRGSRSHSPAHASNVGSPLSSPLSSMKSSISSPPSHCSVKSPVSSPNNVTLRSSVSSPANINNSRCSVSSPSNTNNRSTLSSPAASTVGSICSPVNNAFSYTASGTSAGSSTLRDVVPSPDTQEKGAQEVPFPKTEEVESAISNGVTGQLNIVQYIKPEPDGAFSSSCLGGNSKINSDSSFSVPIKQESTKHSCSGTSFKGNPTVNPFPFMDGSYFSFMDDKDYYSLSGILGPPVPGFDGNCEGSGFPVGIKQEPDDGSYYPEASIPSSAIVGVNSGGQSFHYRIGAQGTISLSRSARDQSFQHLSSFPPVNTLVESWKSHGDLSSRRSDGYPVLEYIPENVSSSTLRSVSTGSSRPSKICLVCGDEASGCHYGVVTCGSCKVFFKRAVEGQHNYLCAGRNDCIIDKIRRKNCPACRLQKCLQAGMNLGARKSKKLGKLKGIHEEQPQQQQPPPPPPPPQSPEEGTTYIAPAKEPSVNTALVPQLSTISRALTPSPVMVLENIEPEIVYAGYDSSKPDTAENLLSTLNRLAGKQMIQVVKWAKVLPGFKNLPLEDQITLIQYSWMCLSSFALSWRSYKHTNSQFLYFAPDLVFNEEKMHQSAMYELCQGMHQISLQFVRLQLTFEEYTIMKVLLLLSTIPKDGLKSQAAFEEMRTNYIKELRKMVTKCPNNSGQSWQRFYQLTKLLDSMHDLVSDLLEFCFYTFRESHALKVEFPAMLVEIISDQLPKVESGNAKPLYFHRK
The experiment is classed as functional, cell-based, Huh-7.

pIC50: −log10 of the molar value. A value given as a limit tells only on which side of the number the result lay.
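Note: antagonism at Gal4-fused mineralocorticoid receptor in human Huh7 cells, measured by luciferase reporter gene read-out.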

The term pIC50 denotes the negative decadic logarithm of the IC50, by convention in mol/L. A lower pIC50 goes with a large IC50. The compound `N#Cc1ccc(N2N=C3c4ccc(C(=O)O)cc4CC[C@@H]3[C@@H]2c2ccc(F)cc2)cc1` (racemic) showed a negative-log IC50 (pIC50) of 6.26.

As for `N#Cc1ccc(N2N=C(c3ccc(C(=O)O)cc3)CC2c2ccc(F)cc2)cc1Cl` (racemic), the pIC50 was 7.25.

`N#Cc1ccc(N2N=C3c4ccc(C(=O)O)cc4CC[C@@H]3[C@@H]2C2CCC2)cc1Cl` (racemic) gave a pIC50 of 7.68.

With `N#Cc1ccc(N2N=C(c3ccc(C(=O)O)cc3)CC2c2cccnc2)cc1` (racemic), the pIC50 was < 5.00.

As to `Cc1cc(N2N=C3c4ccc(C(=O)O)cc4CC[C@@H]3[C@@H]2C2CCCC2)ccc1C#N` (racemic), the negative-log IC50 (pIC50) was 8.40.

`N#Cc1ccc(N2N=C(c3ccc(C(=O)O)cc3)CC2c2cccs2)cc1` (racemic) showed a pIC50 of 6.12.

`N#Cc1ccc(N2N=C(c3ccc4[nH]c(=O)oc4c3)CC2c2ccc(F)cc2)cc1` (racemic): the pIC50 is 7.24.

On to `N#Cc1ccc(N2N=C(c3ccc(C(=O)O)c(OC(F)(F)F)c3)C[C@@H]2C2CCCC2)cc1Cl`, for which the negative logarithm of the IC50 (pIC50) is 7.10.

With `N#Cc1ccc(N2N=C3c4ccc(C(=O)O)cc4CO[C@H]3[C@H]2C2CCCC2)cc1Cl` (stereo in doubt), the negative logarithm of the IC50 (pIC50) was 6.84.

As for `N#Cc1ccc(N2N=C(c3ccc(C(=O)O)c(F)c3)C[C@@H]2C2CCCC2)cc1Cl`, the negative-log IC50 (pIC50) is 7.28.

On to `N#Cc1ccc(N2N=C(c3ccc(C(=O)O)cc3)CC2c2ccc(F)cc2)cc1C#N` (racemic), for which the negative logarithm of the IC50 (pIC50) was < 6.00.

Compound `N#Cc1ccc(N2N=C(c3ccc(C(=O)O)cc3)CC2C2CCCC2)cc1` (racemic) gave a pIC50 of 6.82.

`N#Cc1ccc(N2N=C3c4ccc(C(=O)O)cc4CC[C@@H]3[C@@H]2C2CC=CC2)cc1Cl` (racemic): the pIC50 was 7.82.

`COc1cc(C2=NN(c3ccc(C#N)c(Cl)c3)[C@@H](C3CCCC3)C2C)ccc1C(=O)O` (single isomer, unassigned) gave a negative logarithm of the IC50 (pIC50) of 7.16.

In turn, `N#Cc1ccc(N2N=C3c4ccc(C(=O)O)cc4CO[C@@H]3[C@@H]2C2CCCC2)cc1Cl` (stereo in doubt) showed a pIC50 of 7.19.

Regarding `N#Cc1ccc(N2N=C(c3ccc(C(=O)O)cc3)C[C@@H]2c2ccc(F)cc2)cc1`, the negative logarithm of the IC50 (pIC50) was 7.00.

Take `O=C(O)c1ccc(C2=NN(c3ccc(C(=O)O)cc3)C(c3ccc(F)cc3)C2)cc1` (racemic): the negative-log IC50 (pIC50) was < 5.00.

As for `N#Cc1ccc(N2N=C(c3ccc(C(=O)O)cc3)CC2c2cccc(F)c2)cc1` (racemic), the negative-log IC50 (pIC50) was 6.36.

`N#Cc1ccc(N2N=C(c3ccc(C(=O)O)cc3)C[C@H]2c2ccc(F)cc2)cc1`: the pIC50 is 5.08.

For the compound `N#Cc1ccc(N2N=C(c3ccc(C(=O)O)cc3)CC2c2ccc(F)cc2)c(Cl)c1` (racemic), the pIC50 was 6.55.

Take `N#Cc1ccc(N2N=C3c4ccc(C(=O)O)cc4C[C@@H]3[C@@H]2c2ccc(F)cc2)cc1` (racemic): the pIC50 is 5.36.

For the compound `COc1cc(C(=O)O)ccc1C1=NN(c2ccc(C#N)c(Cl)c2)[C@@H](C2CCCC2)C1`, the pIC50 was 8.70.

`N#Cc1ccc(N2N=C(c3ccc(C(=O)O)cc3)CC2C2CCCCC2)cc1` (racemic) showed a negative logarithm of the IC50 (pIC50) of 5.89.

Take `N#Cc1ccc(N2N=C(c3ccc4[nH]c(=O)oc4c3)C[C@H]2c2ccc(F)cc2)cc1`: the negative logarithm of the IC50 (pIC50) is 5.68.

With `N#Cc1ccc(N2N=C(c3ccc(C(=O)O)cc3)CC2c2ccc(F)cc2)c(F)c1` (racemic), the negative-log IC50 (pIC50) is 6.27.

`N#Cc1ccc(N2N=C(c3ccc(C(=O)O)c(OCCCO)c3)C[C@@H]2C2CCCC2)cc1Cl` showed a pIC50 of 7.89.

`N#Cc1ccc(N2N=C(c3ccc(C(=O)O)cc3)CC2C2CCCC2)cc1Cl` (racemic) had a negative-log IC50 (pIC50) of 7.27.

Turning to `COc1cccc(C2CC(c3ccc(C(=O)O)cc3)=NN2c2ccc(C#N)cc2)c1` (racemic), the pIC50 is 5.80.

For the compound `Cc1cc(N2N=C3c4ccc(C(=O)O)cc4CO[C@H]3[C@H]2C2CCCC2)ccc1C#N` (racemic), the pIC50 was 7.41.

Regarding `N#Cc1ccc(N2N=C3c4ccc(C(=O)O)cc4CC[C@@H]3[C@@H]2C2CCCC2)cc1O` (racemic), the negative-log IC50 (pIC50) was < 6.30.
